Test results reported in a compilation of properties of binary mixtures (doi:10.1016/j.molliq.2020.113742).

Experiment: xn = mol fraction of the nth substance listed

CCCC[N+]1(C)CCCCC1.F[P-](F)(F)(F)(F)F + CCCC[N+]1(C)CCCC1.F[P-](F)(F)(F)(F)F
viscosity [mPa·s], 102 kPa
Settings	353.15 K	363.15 K	373.15 K	383.15 K
x1 = 0.3	126	85	58	–
x1 = 0.5	–	101	68	48
x1 = 0.7	194	125	84	59

CCCC[N+]1(C)CCCC1.F[P-](F)(F)(F)(F)F + CCCC[n+]1cccc(C)c1.F[P-](F)(F)(F)(F)F
viscosity [mPa·s], 101.3 kPa
Settings	x2 = 0.2	x2 = 0.3	x2 = 0.4	x2 = 0.5	x2 = 0.6	x2 = 0.7	x2 = 0.8	x2 = 0.9
303.13 K	–	–	746	–	–	–	–	–
308.15 K	–	–	–	480	427	–	–	–
313.15 K	–	448	–	352	313	277	–	–
318.15 K	–	334	–	–	234	208	190	–
323.15 K	–	253	220	199	178	159	146	130
328.15 K	221	195	–	153	138	–	113	–
333.15 K	173	153	133	121	–	97	89	80
338.15 K	138	121	106	–	87	78	71	65
343.15 K	–	98	–	78	–	63	58	53
348.15 K	90	79	70	63	–	52	48	43
353.15 K	74	65	–	53	48	43	40	36
358.15 K	–	55	–	44	40	36	33	30
363.15 K	51	46	41	–	–	31	28	26
